Laboratory results published in PubChem BioAssay (NCI).
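Growth conditions: 96-well plates. Treatment: test compound, 48 hours, 5 concentrations. Analysis: linear interpolation between bracketing concentrations; unreached endpoints set to highest concentration. TGI: concentration producing complete growth inhibition.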

What was measured:
Assay in all cases: NCI anticancer screen, dose series, 48 h
XF 498 CNS = system: XF 498 CNS
DLD-1 colon = system: DLD-1 colon
LXFL 529 NSCLC = system: LXFL 529 NSCLC
DMS 273 small cell lung = system: DMS 273 small cell lung
DMS 114 small cell lung = system: DMS 114 small cell lung
M19-MEL melanoma = system: M19-MEL melanoma
KM20L2 colon = system: KM20L2 colon
SNB-78 CNS = system: SNB-78 CNS
HOP-18 NSCLC = system: HOP-18 NSCLC
RXF-631 renal = system: RXF-631 renal

COc1ccc(/C(Cl)=C(\c2ccc(OCCN(C)C)cc2)c2ccc(OC(=O)C(C)(C)C)cc2)cc1
TGI (XF 498 CNS): 23.7 µM | TGI (DLD-1 colon): 26.6 µM | TGI (LXFL 529 NSCLC): 27 µM | TGI (DMS 273 small cell lung): 17.5 µM | TGI (DMS 114 small cell lung): 24.6 µM | TGI (M19-MEL melanoma): 26.6 µM | TGI (KM20L2 colon): 12.4 µM | TGI (SNB-78 CNS): 33.2 µM

CSc1nc(NC2OC(COC(C)=O)C(OC(C)=O)C(OC(C)=O)C2OC(C)=O)c(-c2csc(N)n2)c(=O)n1C (stereo not given)
TGI (DLD-1 colon): > 100 µM | TGI (LXFL 529 NSCLC): > 100 µM | TGI (DMS 114 small cell lung): > 100 µM | TGI (M19-MEL melanoma): > 100 µM | TGI (HOP-18 NSCLC): > 100 µM | TGI (KM20L2 colon): > 100 µM | TGI (SNB-78 CNS): 76.8 µM

CC1=C(Cl)C=CP(=O)(OC(C)C)C1 (stereo not given)
TGI (DLD-1 colon): > 100 µM | TGI (LXFL 529 NSCLC): > 100 µM | TGI (DMS 114 small cell lung): > 100 µM | TGI (M19-MEL melanoma): > 100 µM | TGI (HOP-18 NSCLC): > 100 µM | TGI (KM20L2 colon): > 100 µM | TGI (RXF-631 renal): > 100 µM | TGI (SNB-78 CNS): > 100 µM

CC1(C)OCC([C@H]2CC23SCCCS3)O1 (stereo not given in full)
TGI (XF 498 CNS): > 100 µM | TGI (DLD-1 colon): > 100 µM | TGI (LXFL 529 NSCLC): > 100 µM | TGI (DMS 273 small cell lung): > 100 µM | TGI (DMS 114 small cell lung): > 100 µM | TGI (HOP-18 NSCLC): > 100 µM | TGI (KM20L2 colon): > 100 µM | TGI (SNB-78 CNS): > 100 µM

Cc1cc(=O)[nH]c(NNC(C#N)c2c(O)ccc3ccccc23)n1 (stereo not given)
TGI (DLD-1 colon): 24.7 µM | TGI (LXFL 529 NSCLC): 47 µM | TGI (DMS 273 small cell lung): 18.7 µM | TGI (DMS 114 small cell lung): 5.81 µM | TGI (M19-MEL melanoma): 25 µM | TGI (HOP-18 NSCLC): > 100 µM | TGI (KM20L2 colon): 95.7 µM | TGI (SNB-78 CNS): > 100 µM

CN(C)CC1CCCCCCCCCC(CN(C)C)C1=O (stereo not given)
TGI (XF 498 CNS): > 100 µM | TGI (DLD-1 colon): > 100 µM | TGI (LXFL 529 NSCLC): > 100 µM | TGI (DMS 273 small cell lung): > 100 µM | TGI (DMS 114 small cell lung): > 100 µM | TGI (M19-MEL melanoma): > 100 µM | TGI (HOP-18 NSCLC): > 100 µM | TGI (KM20L2 colon): > 100 µM | TGI (RXF-631 renal): > 100 µM | TGI (SNB-78 CNS): > 100 µM

CC1(S)CC2C(CC1Sc1ccccc1)C2(C)C (stereo not given)
TGI (XF 498 CNS): > 100 µM | TGI (DLD-1 colon): > 100 µM | TGI (LXFL 529 NSCLC): > 100 µM | TGI (DMS 273 small cell lung): > 100 µM | TGI (DMS 114 small cell lung): > 100 µM | TGI (M19-MEL melanoma): > 100 µM | TGI (HOP-18 NSCLC): > 100 µM | TGI (SNB-78 CNS): > 100 µM

O=S(=O)(c1ccccc1)n1cc(C[P+](c2ccccc2)(c2ccccc2)c2ccccc2)c2ccccc21
TGI (XF 498 CNS): 12.1 µM | TGI (DLD-1 colon): 11 µM | TGI (LXFL 529 NSCLC): 8.26 µM | TGI (DMS 273 small cell lung): 10.2 µM | TGI (DMS 114 small cell lung): 14.4 µM | TGI (M19-MEL melanoma): 15.9 µM | TGI (KM20L2 colon): 16.6 µM | TGI (SNB-78 CNS): 20.7 µM

CCOC(=O)[C@H]1Nc2ccc([N+](=O)[O-])cc2C2c3ccccc3CC21 (stereo not given in full)
TGI (XF 498 CNS): 82.7 µM | TGI (DLD-1 colon): > 100 µM | TGI (LXFL 529 NSCLC): 49.3 µM | TGI (DMS 273 small cell lung): 34.9 µM | TGI (DMS 114 small cell lung): 54 µM | TGI (M19-MEL melanoma): 70.7 µM | TGI (KM20L2 colon): 54 µM | TGI (SNB-78 CNS): > 100 µM

O=c1c(NO)c([N+](=O)[O-])cnn1-c1ccccc1
TGI (XF 498 CNS): 8.38 µM | TGI (DLD-1 colon): 10.2 µM | TGI (LXFL 529 NSCLC): 3.17 µM | TGI (DMS 273 small cell lung): 13.4 µM | TGI (DMS 114 small cell lung): 35.3 µM | TGI (M19-MEL melanoma): 12.2 µM | TGI (HOP-18 NSCLC): 37.5 µM | TGI (KM20L2 colon): 18.3 µM | TGI (RXF-631 renal): 6.18 µM | TGI (SNB-78 CNS): 39.2 µM

CNS(=O)(=O)NN(C)S(=O)(=O)c1ccc2ccccc2c1
TGI (DLD-1 colon): > 100 µM | TGI (LXFL 529 NSCLC): > 100 µM | TGI (DMS 273 small cell lung): > 100 µM | TGI (DMS 114 small cell lung): > 100 µM | TGI (M19-MEL melanoma): > 100 µM | TGI (KM20L2 colon): > 100 µM | TGI (RXF-631 renal): > 100 µM

CC(=O)C(CN(C)C)C(c1ccccc1)c1c(O)c2ccccc2oc1=O (stereo not given)
TGI (XF 498 CNS): > 100 µM | TGI (DLD-1 colon): > 100 µM | TGI (LXFL 529 NSCLC): > 100 µM | TGI (DMS 273 small cell lung): > 100 µM | TGI (DMS 114 small cell lung): > 100 µM | TGI (M19-MEL melanoma): > 100 µM | TGI (HOP-18 NSCLC): > 100 µM | TGI (KM20L2 colon): > 100 µM | TGI (SNB-78 CNS): > 100 µM

NCCCCC(=O)c1cccnc1
TGI (XF 498 CNS): > 100 µM | TGI (DLD-1 colon): > 100 µM | TGI (LXFL 529 NSCLC): > 100 µM | TGI (DMS 273 small cell lung): > 100 µM | TGI (DMS 114 small cell lung): > 100 µM | TGI (M19-MEL melanoma): > 100 µM | TGI (HOP-18 NSCLC): > 100 µM | TGI (KM20L2 colon): > 100 µM | TGI (SNB-78 CNS): > 100 µM

NC(=O)N/N=C(/Cc1nc2ccc(C(=O)c3ccccc3)cc2[nH]c1=O)C(=O)Nc1ccc(C(F)(F)F)cc1[N+](=O)[O-]
TGI (XF 498 CNS): > 100 µM | TGI (DLD-1 colon): > 100 µM | TGI (LXFL 529 NSCLC): > 100 µM | TGI (DMS 273 small cell lung): > 100 µM | TGI (DMS 114 small cell lung): > 100 µM | TGI (M19-MEL melanoma): > 100 µM | TGI (HOP-18 NSCLC): > 100 µM | TGI (KM20L2 colon): > 100 µM | TGI (RXF-631 renal): > 100 µM | TGI (SNB-78 CNS): > 100 µM

COc1ccc2c(c1)CC1c3c(ccc(OC)c3O)CC2N1C (stereo not given)
TGI (XF 498 CNS): 62.3 µM | TGI (DLD-1 colon): > 100 µM | TGI (LXFL 529 NSCLC): 39 µM | TGI (DMS 273 small cell lung): 45.2 µM | TGI (DMS 114 small cell lung): 38.8 µM | TGI (M19-MEL melanoma): 56.9 µM | TGI (HOP-18 NSCLC): > 100 µM | TGI (KM20L2 colon): > 70 µM | TGI (RXF-631 renal): 47.1 µM | TGI (SNB-78 CNS): 97 µM

C[C@@H]1C2=CC[C@@]3(C)C(CCC3[C@H](C)[C@H]3C[C@@]4(C)O[C@@](c5cccnc5)(O3)OC4(C)C)[C@@H]2C2OC2[C@@]12CCC(=O)O2 (stereo not given in full)
TGI (DLD-1 colon): > 100 µM | TGI (LXFL 529 NSCLC): > 100 µM | TGI (DMS 273 small cell lung): > 100 µM | TGI (DMS 114 small cell lung): > 100 µM | TGI (M19-MEL melanoma): > 100 µM | TGI (HOP-18 NSCLC): 87.1 µM | TGI (KM20L2 colon): 96.2 µM | TGI (SNB-78 CNS): > 100 µM

O=S(=O)([O-])[O-].[Cl-].[NH2-].[NH2-].[NH2-].[NH2-].[Ru+3].c1ccncc1
TGI (DLD-1 colon): > 100 µM | TGI (LXFL 529 NSCLC): > 100 µM | TGI (DMS 273 small cell lung): > 100 µM | TGI (KM20L2 colon): > 100 µM

O=C(Nc1cc(Cl)cc(Cl)c1)/C(Cc1nc2ccccc2[nH]c1=O)=N/NC(=O)c1ccncc1
TGI (DLD-1 colon): > 100 µM | TGI (LXFL 529 NSCLC): > 100 µM | TGI (DMS 114 small cell lung): > 100 µM | TGI (M19-MEL melanoma): > 100 µM | TGI (KM20L2 colon): > 100 µM | TGI (RXF-631 renal): > 100 µM | TGI (SNB-78 CNS): > 100 µM

O=S1(=O)CCCS(=O)(=O)C(c2ccccc2)=C1c1ccccc1
TGI (DLD-1 colon): > 100 µM | TGI (LXFL 529 NSCLC): > 100 µM | TGI (DMS 114 small cell lung): > 100 µM | TGI (M19-MEL melanoma): > 100 µM | TGI (HOP-18 NSCLC): > 100 µM | TGI (KM20L2 colon): 72.1 µM | TGI (RXF-631 renal): > 100 µM | TGI (SNB-78 CNS): > 100 µM

CCCCCCCCCCCCCCCC(=O)OCC1OC(OC)C2NP(=O)(N(CCCl)CCCl)OC1C2O (stereo not given)
TGI (XF 498 CNS): 7.83 µM | TGI (DLD-1 colon): 14.5 µM | TGI (LXFL 529 NSCLC): 8.06 µM | TGI (DMS 273 small cell lung): 5.09 µM | TGI (DMS 114 small cell lung): 9.31 µM | TGI (M19-MEL melanoma): > 75.3 µM | TGI (HOP-18 NSCLC): 33.6 µM | TGI (KM20L2 colon): 46.7 µM | TGI (RXF-631 renal): 25.7 µM | TGI (SNB-78 CNS): 19.2 µM
